Reference: patent US4411900A, “Benzhydrylpiperozinyl thiazole derivatives and pharmaceutical composition comprising the same” (Fujisawa Pharmaceutical Co., Ltd., priority 1980, dated 1983)

Tested on: anaphylactic asthma in guinea-pigs
Test: Antagonism to anaphylactic asthma in guinea-pigs (inhibitory effect from number of surviving animals)
Type: in vivo, guinea-pig (male Hartley strain)
Settings: oral, 30 minutes before egg albumin challenge, survival more than 2 hours after antigen spray, *Dose group: 5 guineapigs (compound D)
Method: Equal volumes of a saline solution of egg albumin (200 mg/ml) and of Freund's Complete Ajuvant were mixed and emulsified. Each male New Zealand white strain rabbits, each weighing 2 to 2.5 kg., received an intramuscular injection of 0.5 ml of the emulsion in the left and right thigh regions. One week later, they received an intradermal injection of 0.25 ml of a saline solution of egg albumin (concentration: 20 mg/ml) in the different four sites of the dorsal skin surface three times every other week. Blood samples were collected from the carotid artery one week after the last injection.
The level of anaphylactic anti-egg albumin antibodies in pools of sera were determined by passive cutaneous anaphylaxis (PCA) reactions using shaven Hartley strain test guinea-pigs.
Antiserum was serially diluted (two fold) in saline and 0.1 ml of each antiserum dilution were injected intradermally into the dorsal skin surface of the test guinea-pigs. 24 hours after intradermal sensitization,Egg albumin-specific PCA reactions were elicited by intravenous injection of 10 mg of egg albumin in 1 ml of 1% Evans blue dye dissolved in saline. Reactions were read and recorded as the highest dilution of serum evoking threshold PCA reactivity (5 mm diameter).
Male Hartley strain guinea-pigs, weighing 305 to 400 g, were used. Animals were sensitized by an intravenous injection of rabbit antiserum against egg albumin (4000 PCA titer) with 0.5 ml/animal. After 24 hours, animals were placed individually in a plastic chamber of 5.3 liter volume. An aerosol of 5% egg albumin solution was sprayed in the chamber at a rate of 0.16 ml/min with a commercial nebulizer. The test compounds were given to the animals orally 30 minutes before the challenge with the egg albumin solution. Each dose group consisted of 3 or 5 animals. The inhibitory effect of the test compounds was determined from the number of surviving animals more than 2 hours after spray of the antigen.

SMILES | Inhibitory Effect (Dose 1 mg/kg) | Inhibitory Effect (Dose 10 mg/kg)
CS(=O)(=O)Nc1nc(CN2CCN(C(c3ccccc3)c3ccccc3)CC2)cs1 [Compound A, 4-(4-Benzhydrylpiperazin-1-ylmethyl)-2-methanesulfonamidothiazole] | 100% | 100%
CCS(=O)(=O)Nc1nc(CN2CCN(C(c3ccccc3)c3ccccc3)CC2)cs1 [Compound B, 4-(4-Benzhydrylpiperazin-1-ylmethyl)-2-ethanesulfonamidothiazole] | 67% | 100%
CCCS(=O)(=O)Nc1nc(CN2CCN(C(c3ccccc3)c3ccccc3)CC2)cs1 [Compound C, 4-(4-Benzhydrylpiperazin-1-ylmethyl)-2-propanesulfonamidothiazole] | 100% | 100%
CC(=O)Nc1nc(CCCN2CCN(C(c3ccccc3)c3ccccc3)CC2)cs1 [Compound D, 4-[3-(4-Benzhydrylpiperazin-1-yl)-propyl]-2-acetamidothiazole] | 40% | 100%
